Measurements published in ChEMBL document CHEMBL1126835, “QSAR's from similarity matrices. Technique validation and application in the comparison of different similarity evaluation methods” (J Med Chem, 1993).

What was measured:
[1] = Dissociation constant (pKa); type: physicochemical
[2] = molecular target: T1, Corticosteroid-binding globulin (Homo sapiens) (UniProt P08185)
T1 sequence (whole entry): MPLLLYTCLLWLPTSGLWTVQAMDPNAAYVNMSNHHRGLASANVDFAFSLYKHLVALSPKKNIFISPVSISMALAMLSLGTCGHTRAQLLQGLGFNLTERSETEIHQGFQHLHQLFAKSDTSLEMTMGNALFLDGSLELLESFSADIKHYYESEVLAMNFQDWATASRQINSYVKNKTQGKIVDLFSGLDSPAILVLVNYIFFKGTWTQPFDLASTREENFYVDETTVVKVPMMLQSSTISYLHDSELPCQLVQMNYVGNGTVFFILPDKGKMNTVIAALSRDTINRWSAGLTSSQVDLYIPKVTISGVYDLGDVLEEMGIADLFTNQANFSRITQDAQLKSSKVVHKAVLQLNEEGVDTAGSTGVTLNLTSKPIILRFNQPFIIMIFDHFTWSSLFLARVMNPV
Description: Binding affinity towards human corticosteroid binding globulin.

[3] = molecular target: T2, Sex hormone-binding globulin (Homo sapiens) (UniProt P04278)
T2 sequence (whole entry): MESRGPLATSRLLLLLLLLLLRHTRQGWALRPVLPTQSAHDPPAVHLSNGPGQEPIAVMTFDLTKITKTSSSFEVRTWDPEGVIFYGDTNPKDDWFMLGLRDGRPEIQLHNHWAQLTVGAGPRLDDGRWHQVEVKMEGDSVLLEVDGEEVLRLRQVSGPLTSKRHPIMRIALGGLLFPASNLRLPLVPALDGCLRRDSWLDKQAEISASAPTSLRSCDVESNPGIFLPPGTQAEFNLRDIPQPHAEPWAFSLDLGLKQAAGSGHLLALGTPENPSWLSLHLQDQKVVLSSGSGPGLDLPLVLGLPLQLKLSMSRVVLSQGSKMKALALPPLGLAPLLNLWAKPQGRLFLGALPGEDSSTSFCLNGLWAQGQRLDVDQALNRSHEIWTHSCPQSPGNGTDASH
Description: Binding affinity towards human testosterone binding globulin.

SMILES | pKa [1] | Log 1/K [2] | Log 1/K [3]
CCC1NC=CN1 | 7.73 | – | –
CC1NC=CN1 | 7.86 | – | –
BrC1NC=CN1 | 3.79 | – | –
CN1C=CNC1N (stereo not given) | 8.54 | – | –
CCCCc1cc2c(cn1)[nH]c1ccccc12 | – | -5 | -9.11
CC(=O)[C@H]1CC[C@H]2[C@@H]3CCC4=CC(=O)CC[C@]4(C)[C@H]3CC[C@]12C | – | -7.38 | -6.94
C[C@]12CC[C@H](O)CC1=CC[C@@H]1[C@@H]2CC[C@]2(C)C(=O)CC[C@@H]12 | – | -5 | -7.82
O=[N+]([O-])C1NC=CN1 | -0.81 | – | –
C[C@]12CCC3C4=C(CCC3C1CCC2=O)CC(=O)C=C4 (stereo not given in full) | – | -5 | -8.18
C[C@]12C[C@H](O)[C@H]3[C@@H](CCC4=CC(=O)CC[C@@]43C)[C@@H]1CC[C@@H]2C(=O)CO | – | -7.88 | -6.34
CN1C=CNC1F (stereo not given) | 2.3 | – | –
FC1NC=CN1 | 2.4 | – | –
C[C@]12CCC(=O)C=C1CC[C@@H]1[C@@H]2[C@@H](O)C[C@@]2(C)[C@H]1CC[C@]2(O)C(=O)CO | – | -7.88 | -6.2
CC(=O)[C@@]1(O)CC[C@H]2[C@@H]3CC=C4C[C@@H](O)CC[C@]4(C)[C@H]3CC[C@@]21C | – | -5 | -6.36
ClC1NC=CN1 | 3.55 | – | –
C[C@]12CC[C@H]3[C@@H](CCC4=CC(=O)CC[C@@]43C)[C@@H]1CC[C@@H]2C(=O)CO | – | -7.65 | -7.38
C[C@]12CC[C@@H](O)C[C@H]1CC[C@@H]1[C@@H]2CC[C@]2(C)C(=O)CC[C@@H]12 | – | -5.22 | -6.15
C[C@]12CCC(=O)C=C1CCC1C3CC[C@H](C(=O)CO)[C@@]34C[C@H](OC4O)C12 (stereo not given in full) | – | -6.28 | -5.32
C[C@]12CCC(=O)C=C1CC[C@@H]1[C@@H]2CC[C@@]2(C)[C@H]1CC[C@]2(O)C(=O)CO | – | -7.88 | -7.2
C1=CNC(c2ccncc2)N1 | 5.36 | – | –
CC(=O)[C@H]1CC[C@H]2[C@@H]3CC=C4C[C@@H](O)CC[C@]4(C)[C@H]3CC[C@]12C | – | -5.22 | -7.15
CSC1NC=CN1 | 5.95 | – | –
C1=CNC(c2ccccc2)N1 | 6.48 | – | –
NC1NC=CN1 | 8.46 | – | –
C[C@]12CCC(=O)C=C1CC[C@@H]1[C@@H]2C(=O)C[C@@]2(C)[C@H]1CC[C@]2(O)C(=O)CO | – | -6.89 | -6.43
C1=CNCN1 | 6.99 | – | –
CC(=O)[C@@]1(O)CC[C@H]2[C@@H]3CCC4=CC(=O)CC[C@]4(C)[C@H]3CC[C@@]21C | – | -7.74 | -7
CN1C=CNC1Br (stereo not given) | 3.82 | – | –
CN1C=CNC1 | 7.12 | – | –
C[C@]12CCC(=O)C=C1CC[C@@H]1[C@@H]2CC[C@]2(C)C(=O)CC[C@@H]12 | – | -5.76 | -7.46
